# Data: patent publication US6737245B1, “Luciferase expression cassettes and methods of use” (priority 1999, dated 2004)
# Format: in vivo
# Details: four mice, IP at 0, 2, 4 and 6 hr, 500 μl of 0.1% and 0.01%, observed over 24 hours
# Method: Four mice were injected IP at 0, 2, 4 and 6 hr with 500 μl volumes of n-decyl aldehyde at concentrations of 0.1% and 0.01%. Aldehyde solutions were prepared as follows: 100 μl of aldehyde was diluted in 900 μl of ethanol. 10 μl of this 10% solution was then diluted into 990 μl of sterile phosphate buffered saline (PBS) pH 7.4 to give a 0.1% final volume of aldehyde solution. The animals were observed over a 24-hour period.
structure (smiles),measurement,value
CCCCCCCCCC=O [n-decyl aldehyde],symptoms of illness or abnormal behavior,None of the mice showed any apparent symptoms of illness or abnormal behavior
